Each structure is given as a SMILES string. Active and inactive are the calls of the source. The rule behind the calls is not given here.

The assay concerns LNCaP cell loss, flow cytometry event count, 4 d. Put plainly: cytotoxicity in LNCaP prostate cancer cells – cell-based, flow cytometry, event count, cytotoxicity control for prostate cell differentiation activator project, dose response (AID 1197). (Flow cytometry measures light scatter and fluorescence of single cells or particles in a stream.)
For `CCOc1ccc(-c2cc(C(=O)NCCCN3CCN(CC)CC3)c3ccccc3n2)cc1`, the EC50 is 21.7 µM (inactive).

With `COc1ccc(-c2noc(CCC(=O)NCCCN3CCC(Cc4ccccc4)CC3)n2)cc1`, the EC50 is 15.6 µM (inactive).

Take `Cn1c(=O)cc(OCC(=O)NCCCN2CCN(c3ccccc3F)CC2)c2ccccc21`: the EC50 was 0.101 µM.

For the molecule `CN1CCN(CCCNC(=O)c2cc3c(-c4ccc(Cl)cc4)nn(C)c3s2)CC1`, the EC50 was 12.6 µM (inactive).

On to `Cn1nc(-c2ccc(Cl)cc2)c2cc(C(=O)NCCCN3CCCC3)sc21`, for which the EC50 was 13 µM (inactive).

Turning to `CCN1CCCC1CNC(=O)C1CCN(Cc2nc(-c3cccc(Br)c3)oc2C)CC1` (configuration not stated), the EC50 is 6.68 µM.

For `CCOC(=O)c1c(C)[nH]c(C(=O)COC(=O)C2CC2C)c1C` (configuration not stated), the EC50 was 0.166 µM.

As to `COc1ccc(CCN2CCC(Nc3nc4ccccc4n3Cc3ccc(F)cc3)CC2)cc1`, the EC50 is 3.74 µM.

As to `Cc1ccc(OCC(O)Cn2c(=N)n(CCN3CCCCC3)c3ccccc32)cc1` (configuration not stated), the EC50 was 8.65 µM.

`CCN(CCNC(=O)C1CCN(Cc2nc(-c3cccc(Cl)c3)oc2C)CC1)c1ccccc1`: the EC50 is 3.07 µM.

In the case of `CCOC(=O)c1[nH]c(C)c(C(=O)N2CCc3ccccc32)c1C`, the EC50 was 0.888 µM.

Take `Cc1ccccc1CS(=O)(=O)CCC(=O)NCCCN1CCN(c2ccccc2F)CC1`: the EC50 is 6.85 µM.

As for `CCN(CCNC(=O)C1CCN(Cc2nc(-c3ccc(Cl)cc3)oc2C)CC1)c1ccccc1`, the EC50 is 8.33 µM.

As for `Cc1oc(-c2ccc(Cl)cc2)nc1CN1CCC(C(=O)NCCCN2CCOCC2)CC1`, the EC50 is 6.27 µM.

Turning to `COc1ccc2cc3cc(C(=O)Nc4ccccc4N4CCN(C)CC4)oc3nc2c1`, the EC50 is 19.3 µM (inactive).

For the molecule `CC(C)N1CCC2(CC1)N=C(c1ccc3c(c1)OCO3)CC(c1cc(Cl)ccc1O)N2` (configuration not stated), the EC50 is 1.94 µM.

As for `COc1ccc(-c2cc(C(F)(F)F)nc(N3CCN(Cc4ccccc4)CC3)n2)cc1OC`, the EC50 is 0.549 µM.

In general, EC50 refers to the concentration needed to bring the measured effect to its halfway point.

For the origin of these results see PubChem BioAssay AID1197 (NMMLSC, 2008).
